Assay results taken from patent publication US20100160207A1, “Feedback Prodrug” (University of Georgia Research Foundation, Inc., priority 2006, published 2010).

Assays:
[1] = test system: α-glucosidase; assay: Negative enzyme control experiment, α-glucosidase; format: biochemical; conditions: 0.1 Unit, MES buffer pH 6.8, 37° C., 20 h
Description: (§1) Compounds 1 and 2 were subjected to an α-glucosidase, α-fucosidase and α-galactosidase.
(§2) Negative enzyme control experiments. A solution of compound 1 or 2 (0.004 mmol) and α-glucosidase, α-galactosidase or α-L-fucosidase (0.1 Unit) in MES buffer (0.05 M; pH 6.8 for α-glucosidase, pH 6.5 for α-galactosidase or pH 5.5 for α-L-fucosidase; 1 ml) was incubated at 37° C. for 20 h, after which the reaction mixture was freezing-dried, and the solid residue was analyzed by ^1H NMR spectrometry and mass spectrometry.

[2] = test system: α-galactosidase; assay: Negative enzyme control experiment, α-galactosidase; format: biochemical; conditions: 0.1 Unit, MES buffer pH 6.5, 37° C., 20 h
Description: as §1, §2

[3] = Treatment with cell lysate in the presence of swainsonine and kifunensine; format: in vitro ADME
[4] = Stability measurements in deuterated sodium acetate buffer by 1H NMR; format: physicochemical; conditions: 0.4 mM, sodium acetate buffer pH 4.0, 37° C., 6 days
Description: Stability measurements. A solution of compound 1 or 2 (0.4 mM) in deuterated sodium acetate buffer (100 mM; pH 4.0; 0.2 ml) in a NMR tube was incubated at 37° C. for 6 days. ^1H NMR spectra were recorded every day.

[5] = test system: α-L-fucosidase; assay: Negative enzyme control experiment, α-L-fucosidase; format: biochemical; conditions: 0.1 Unit, MES buffer pH 5.5, 37° C., 20 h
Description: as §1, §2

[6] = biological target: T1, human lysosomal mannosidase (HLM) (Homo sapiens, UniProt O00754); assay: Enzymatic cleavage of prodrugs by human lysosomal mannosidase monitored by 1H NMR; format: biochemical; conditions: HLM 20 mU, 80 nmol compound, sodium acetate buffer pH 5.6, 37° C.
T1 sequence (O00754 50-1011): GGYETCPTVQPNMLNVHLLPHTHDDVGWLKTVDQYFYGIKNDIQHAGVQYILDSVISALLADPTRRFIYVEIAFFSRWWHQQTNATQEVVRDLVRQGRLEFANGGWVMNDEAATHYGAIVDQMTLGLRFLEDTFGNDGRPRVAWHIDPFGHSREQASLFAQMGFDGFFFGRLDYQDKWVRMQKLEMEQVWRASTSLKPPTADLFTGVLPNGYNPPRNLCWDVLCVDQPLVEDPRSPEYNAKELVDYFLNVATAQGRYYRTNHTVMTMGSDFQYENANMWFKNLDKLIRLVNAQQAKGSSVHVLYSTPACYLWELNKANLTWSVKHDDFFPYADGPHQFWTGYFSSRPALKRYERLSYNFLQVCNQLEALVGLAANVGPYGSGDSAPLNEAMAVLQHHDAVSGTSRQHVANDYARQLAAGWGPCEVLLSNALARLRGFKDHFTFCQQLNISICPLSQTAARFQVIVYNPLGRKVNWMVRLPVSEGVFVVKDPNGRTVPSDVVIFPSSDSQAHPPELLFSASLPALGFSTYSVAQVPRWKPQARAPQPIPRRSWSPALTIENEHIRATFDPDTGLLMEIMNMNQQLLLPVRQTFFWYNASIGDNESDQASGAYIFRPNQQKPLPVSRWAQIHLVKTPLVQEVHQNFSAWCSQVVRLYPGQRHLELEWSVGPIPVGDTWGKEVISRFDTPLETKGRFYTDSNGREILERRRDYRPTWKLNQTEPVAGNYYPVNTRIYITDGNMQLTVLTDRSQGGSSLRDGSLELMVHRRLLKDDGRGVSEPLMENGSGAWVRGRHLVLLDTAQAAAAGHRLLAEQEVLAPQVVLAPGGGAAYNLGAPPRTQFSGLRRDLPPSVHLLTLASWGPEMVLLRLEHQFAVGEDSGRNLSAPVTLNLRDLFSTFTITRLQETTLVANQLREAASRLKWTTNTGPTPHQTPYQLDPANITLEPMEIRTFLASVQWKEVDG
Description: HLM ([…]) was added to a solution of 2 (a) or 1 (b) ([…]) in a deuterated sodium acetate buffer (100 mM, pH, 5.6, 0.2 mL) and the enzymatic cleavage was monitored by ^1H NMR (600 MHz).
The enzymatic cleavage of 1 and 2 by human lysosomal mannosidase (HLM) was monitored by ^1H NMR (600 MHz) (Wilson et al., Org. Lett. 1999, 1, 443) Thus, HLM (20 mU) was added to a solution of 1 or 2 (80 nmol) dissolved in a deuterated sodium acetate buffer (100 mM, pH 5.6, 0.2 mL). The progress of the reaction was monitored by the integration of key signals of the starting material, the intermediate and final product. […] In this case, the released mannostatin A (5) inhibits HLM terminating further hydrolysis of 1. Mannostatin A is a potent inhibitor of retaining α-mannosidases (Ki=90 nM, HLM) (Li et al., Chem. Bio. Chem. 2004, 5, 1220) and thus the release of low concentrations of the active compound is sufficient to abolish enzyme activity.
Kinetic measurements. A solution of compound 1 or 2 (0.08 μmol) and human lysosomal mannosidase (HLM, 0.02 Unit) in deuterated sodium acetate buffer (0.1 M; pH 5.6; 0.2 ml) was incubated at 37° C., and ^1H NMR spectra (600 MHz) were recorded at different time intervals. Relevant signals were integrated to determine the rate of enzymatic hydrolysis, and the appearance of the intermediate and the final product.

[7] = biological target: T2, drosophila Golgi α-mannosidase II (dGMII) (Drosophila melanogaster, UniProt Q24451); assay: Affinity of N-benzyl mannostatin for Golgi α-mannosidase II; format: binding
T2 sequence (Q24451 1-1108): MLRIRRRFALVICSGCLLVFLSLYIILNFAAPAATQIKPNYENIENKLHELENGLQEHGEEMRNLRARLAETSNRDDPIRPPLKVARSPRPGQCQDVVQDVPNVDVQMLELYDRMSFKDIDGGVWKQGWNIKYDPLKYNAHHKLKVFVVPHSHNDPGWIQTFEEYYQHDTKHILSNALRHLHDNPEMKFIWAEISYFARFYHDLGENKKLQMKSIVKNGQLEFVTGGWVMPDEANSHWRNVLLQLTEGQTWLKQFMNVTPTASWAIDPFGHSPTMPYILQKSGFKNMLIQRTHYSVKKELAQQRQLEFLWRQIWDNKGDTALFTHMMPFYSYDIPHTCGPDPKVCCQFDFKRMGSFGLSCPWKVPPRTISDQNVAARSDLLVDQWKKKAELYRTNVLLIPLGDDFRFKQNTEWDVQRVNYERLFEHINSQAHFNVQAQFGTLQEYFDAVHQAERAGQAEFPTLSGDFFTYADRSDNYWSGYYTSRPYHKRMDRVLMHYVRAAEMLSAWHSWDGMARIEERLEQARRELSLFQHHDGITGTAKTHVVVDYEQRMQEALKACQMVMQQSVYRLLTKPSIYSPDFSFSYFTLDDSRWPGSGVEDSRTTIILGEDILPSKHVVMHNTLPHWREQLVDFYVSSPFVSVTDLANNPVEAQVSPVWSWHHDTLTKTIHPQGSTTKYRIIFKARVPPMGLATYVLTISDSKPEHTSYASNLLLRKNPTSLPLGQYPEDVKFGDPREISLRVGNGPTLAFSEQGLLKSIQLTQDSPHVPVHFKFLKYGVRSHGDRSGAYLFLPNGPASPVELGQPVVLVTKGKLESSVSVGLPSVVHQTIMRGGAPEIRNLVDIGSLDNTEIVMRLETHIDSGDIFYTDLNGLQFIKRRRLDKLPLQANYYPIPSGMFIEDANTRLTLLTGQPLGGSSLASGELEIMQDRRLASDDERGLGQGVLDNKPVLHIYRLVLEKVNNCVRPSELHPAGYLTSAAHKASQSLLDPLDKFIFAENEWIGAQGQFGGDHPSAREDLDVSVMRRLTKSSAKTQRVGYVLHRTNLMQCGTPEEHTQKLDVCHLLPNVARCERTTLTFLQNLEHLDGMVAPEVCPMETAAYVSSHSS
From the text: The finding was ultimately explained by careful examination of the crystal structure of dGMII with the synthetic inhibitor; see Kawatkar et al., J. Am. Chem. Soc., 128, 8310-8319 (2006).

| Structure (SMILES) | decomposition by α-glucosidase [1] | decomposition by α-galactosidase [2] | decomposition in cell lysate [3] | decomposition in buffer [4] | decomposition by α-L-fucosidase [5] | enzymatic hydrolysis of the prodrug by HLM [6] | affinity compared with mannostatin A [7] |
| --- | --- | --- | --- | --- | --- | --- | --- |
| CSC1C(O)C(O)C(O)C1NC(=O)OCc1ccc(O[C@H]2O[C@H](CO)[C@@H](O)[C@H](O)[C@@H]2O)cc1 (stereo partly drawn) [Compound 1, 1D-(1,2,3,4/5)-4-[4-(α-D-mannopyranosyloxy)-benzyloxycarbonyl]amino-5-(methylsulfanyl)cyclopentane-1,2,3-triol] | No decomposition of product was observed | No decomposition of product was observed | did not lead to decomposition | No decomposition of product was observed | No decomposition of product was observed | virtually no hydrolysis was observed | – |
| CSC1C(O)C(O)C(O)C1NCc1ccccc1 (stereo not shown) [N-benzyl mannostatin] | – | – | – | – | – | – | slightly reduced affinity |
